In patent US20260199305A1, “LONG-ACTING ORAL PHARMACEUTICAL COMPRISING HYPOXIA-INDUCIBLE FACTOR PROLYL HYDROLASE INHIBITOR AND USE THEREOF” (Kind Pharmaceutical, priority 2023, published 2026):
Where two headings read alike, the source gives them in different places.

Tests used:
[1] = Elimination half-life in rats after single oral gavage; assay type: in vivo; settings: SD, rat, plasma
Procedure: Preparation of Single-Dose Oral Formulation: 25.3800 g of meglumine (Sigma) was weighed and dissolved in 80 mL of deionized water. The resulting mixture was stirred for 35 minutes and the volume was made up to 130 mL to obtain a 1M meglumine solution. 4.31 mg, 13.54 mg, and 40.59 mg of Comp-1 were weighed separately and then added to 28.676 mL, 27 mL, and 27 mL of the 1M meglumine solution respectively. The resulting mixtures each was stirred for 31 minutes and sonicated for 5 minutes to obtain colorless transparent solutions with Comp-1 concentrations of 0.15 mg/mL, 0.5 mg/mL, and 1.5 mg/mL, respectively.
18 SD rats (half male, half female) were randomly divided into 3 groups (3 males and 3 females per group). Comp-1 was administered by oral gavage at doses of 1.5, 5.0, and 15.0 mg/kg. Blood samples were collected before administration and at 0.25, 0.5, 1, 2, 4, 6, 8, 24, 48, and 72 hours after administration. The oral vehicle was a 1 M meglumine solution in deionized water, and the administration volume was 10 mL/kg for all doses. All collected plasma samples were stored at −75±15° C. until analysis. The concentration of Comp-1 in SD rat plasma was determined using liquid chromatography-tandem mass spectrometry with Tolbutamide as an internal standard. The mass spectrometer utilized an electrospray ionization source operating in positive ion mode. The precursor-to-product ion transitions monitored were m/z 381.2→306.3 for Comp-1 and m/z 270.9->155.0 for Tolbutamide. Pharmacokinetic parameters of Comp-1 were calculated by software Phoenix™ WinNonlin version 6.1 using a non-compartmental model. Pharmacokinetic data were calculated using a linear log trapezoidal method with a weighting of 1/Y*Y. Samples with concentrations below the lower limit of quantification were not included in the calculation of pharmacokinetic parameters. Microsoft Excel 2010 was used to calculate the mean values of various parameters, with the mean determined from the pharmacokinetic parameters of each animal. The mean elimination half-lives of Comp-1 in male rats at the doses of 1.5, 5.0, and 15.0 mg/kg were: 6.72 hours, 15.0 hours, and 10.2 hours, respectively. The mean elimination half-lives of Comp-1 in female rats at the doses of 1.5, 5.0, and 15.0 mg/kg were: 12.9 hours, 5.72 hours, and 24.9 hours, respectively.

Normal Rats = experiment: Hemoglobin increase in normal rats, oral tiw vs qw for 4 weeks; assay type: in vivo, SD rats; parameters: Hemoglobin D0 / Hemoglobin D14: unit not given here; settings: for Hemoglobin D0 / Hemoglobin D7 / Hemoglobin D14 / Hemoglobin D21 / Hemoglobin D28: oral; for Hemoglobin D0: day 0; for Hemoglobin D7: day 7; for Hemoglobin D14: day 14; for Hemoglobin D21: day 21; for Hemoglobin D28: day 28
Procedure: A total of 70 male SD rats, approximately 7 weeks old, were acclimated to the experimental environment for 10 days before the start of the experiment. Throughout the experiment, animals were housed in cages (5 rats per cage) in a conventional animal room with 24-hour continuous central air conditioning, temperature set at 24° C., and a 12-hour light/dark cycle. All rats had free access to food (dry pelleted food) and purified drinking water. The animals were randomly divided into 8 groups: the vehicle tiw group and vehicle qw group each contained 5 rats; Comp-1 3 mpk tiw, 6 mpk tiw, 10 mpk tiw, 9 mpk qw, 18 mpk qw, and 30 mpk qw, each contained 10 rats (mpk=mg/kg). The vehicle was 1 M aqueous meglumine solution. Each rat received oral gavage of the vehicle or the corresponding weight of Comp-1 vehicle solution according to its body weight and group assignment (tiw, qw) for a total of 4 weeks. Blood samples were collected from each rat on days 0, 7, 14, 21, and 28 to measure hemoglobin values (HGB, Hb). After tail snip blood collection, hemoglobin values were measured and read using a hemoglobin detector (HemoCue Hb 201+, produced by Radiometer). Quantitative data results were analyzed statistically using one-way analysis of variance (ANOVA) between groups, followed by Dunnett's multiple comparison method. Two-tailed analysis was used for statistics, and the statistical significance level was set at P<0.05.

[2] = Phase 1 single-dose and multiple-dose pharmacokinetics in healthy volunteers; assay type: in vivo, Humans; settings: for half-life / Tmax: human, oral; for Tmax: read-out: median Tmax
Procedure: In a Phase 1, randomized, double-blind, placebo-controlled, single-dose and multiple-dose clinical study, a total of 46 healthy volunteers were assigned to one of six dose groups (1 mg, 4 mg, 10 mg, 20 mg, 30 mg, 50 mg) in a single-dose phase. In each dose group, 2 volunteers received a matching placebo. In the 1 mg dose group, 4 volunteers received a single dose of Comp-1 and in the remaining dose groups, 6 volunteers each received a single dose of Comp-1. Blood samples were collected from volunteers within 1 hour before dosing and at 0.5, 1, 1.5, 2, 3, 4, 5, 6, 7, 8, 10, 12, 24, 48, and 72 hours after dosing for pharmacokinetic (PK) analysis.
A total of 32 healthy volunteers were assigned to one of four dose groups (4 mg, 10 mg, 20 mg, 30 mg) in a multiple-dose phase. In each dose group, 2 volunteers received a matching placebo and 6 volunteers received Comp-1 once daily for 10 consecutive days. Blood samples for PK analysis were collected from volunteers within 1 hour before dosing and at 0.5, 1, 1.5, 2, 3, 4, 5, 6, 7, 8, 10, 12, and 24 hours after dosing on the first dosing day (i.e., Day 1), as well as within 1 hour before dosing and at 0.5, 1, 2, 3, 4, 5, 6, 7, 8, 10, 12, 24, 48, and 72 hours after dosing on Days 6, 7, 8, and 10.

[3] = after 10 consecutive days of dosing
[4] = multiple-dose phase, after the first dose

Question: With O=C(O)CNC(=O)C1=C(O)C2(CCCC2)n2c(ccc2-c2ccccc2)C1=O [Comp-1, (6′-hydroxy-8′-oxo-3′-phenyl-8′H-spiro[cyclopentane-1,5′-indolizine]-7′-carbonyl)glycine] as the compound, how does the half-life ([1]; female rats, 1.5 mg/kg oral gavage) read?
Answer: The half-life was 12.9 h.

Question: And the half-life ([1]; female rats, 5.0 mg/kg oral gavage)?
Answer: The half-life was 5.72 h.

Question: What about the half-life ([1]; female rats, 15.0 mg/kg oral gavage) of the same compound?
Answer: Its half-life is 24.9 h.

Question: What about the half-life ([1]; male rats, 1.5 mg/kg oral gavage) of the same compound?
Answer: Its half-life is 6.72 h.

Question: What about the half-life ([1]; male rats, 5.0 mg/kg oral gavage) of the same compound?
Answer: Its half-life is 15 h.

Question: What about the half-life ([1]; male rats, 15.0 mg/kg oral gavage) of the same compound?
Answer: Its half-life is 10.2 h.

Question: What about the “Hemoglobin D0” value (Normal Rats; 3 mg/kg, tiw) of the same compound?
Answer: The value was 16.42 ± 0.74.

Question: What about the “Hemoglobin D7” value (Normal Rats; 3 mg/kg, tiw) of the same compound?
Answer: The value was 18.32 ± 0.70.

Question: What about the “Hemoglobin D14” value (Normal Rats; 3 mg/kg, tiw) of the same compound?
Answer: Its value is 19.06 ± 0.81.

Question: What about the “Hemoglobin D21” value (Normal Rats; 3 mg/kg, tiw) of the same compound?
Answer: Its value is 18.09 ± 0.57.

Question: What about the “Hemoglobin D28” value (Normal Rats; 3 mg/kg, tiw) of the same compound?
Answer: Its value is 18.97 ± 0.56.

Question: What about the “Hemoglobin D0” value (Normal Rats; 6 mg/kg, tiw) of the same compound?
Answer: Its value is 17.4 ± 1.07.

Question: And the “Hemoglobin D7” value (Normal Rats; 6 mg/kg, tiw)?
Answer: The value was 18.76 ± 0.76.

Question: And the “Hemoglobin D14” value (Normal Rats; 6 mg/kg, tiw)?
Answer: The value was 20.15 ± 0.58.

Question: And the “Hemoglobin D21” value (Normal Rats; 6 mg/kg, tiw)?
Answer: The value was 19.49 ± 0.82.

Question: And the “Hemoglobin D28” value (Normal Rats; 6 mg/kg, tiw)?
Answer: Its value is 21.26 ± 1.08.

Question: What about the “Hemoglobin D0” value (Normal Rats; 9 mg/kg, qw) of the same compound?
Answer: The value was 16.96 ± 0.82.

Question: What about the “Hemoglobin D7” value (Normal Rats; 9 mg/kg, qw) of the same compound?
Answer: Its value is 17.57 ± 1.07.

Question: What about the “Hemoglobin D14” value (Normal Rats; 9 mg/kg, qw) of the same compound?
Answer: Its value is 17.77 ± 2.01.

Question: And the “Hemoglobin D21” value (Normal Rats; 9 mg/kg, qw)?
Answer: Its value is 17.73 ± 1.15.

Question: And the “Hemoglobin D28” value (Normal Rats; 9 mg/kg, qw)?
Answer: Its value is 19.09 ± 1.44.

Question: And the “Hemoglobin D0” value (Normal Rats; 10 mg/kg, tiw)?
Answer: The value was 17.74 ± 1.06.

Question: What about the “Hemoglobin D7” value (Normal Rats; 10 mg/kg, tiw) of the same compound?
Answer: The value was 19.21 ± 0.71.

Question: What about the “Hemoglobin D14” value (Normal Rats; 10 mg/kg, tiw) of the same compound?
Answer: Its value is 21.83 ± 1.18.

Question: What about the “Hemoglobin D21” value (Normal Rats; 10 mg/kg, tiw) of the same compound?
Answer: The value was 22.12 ± 1.40.

Question: And the “Hemoglobin D28” value (Normal Rats; 10 mg/kg, tiw)?
Answer: Its value is 23.69 ± 1.31.

Question: What about the “Hemoglobin D0” value (Normal Rats; 18 mg/kg, qw) of the same compound?
Answer: Its value is 17.2 ± 1.00.

Question: What about the “Hemoglobin D7” value (Normal Rats; 18 mg/kg, qw) of the same compound?
Answer: The value was 17.95 ± 0.88.

Question: And the “Hemoglobin D14” value (Normal Rats; 18 mg/kg, qw)?
Answer: Its value is 18.57 ± 0.76.

Question: What about the “Hemoglobin D21” value (Normal Rats; 18 mg/kg, qw, in g/dL) of the same compound?
Answer: The value was 18.72 ± 0.92.

Question: And the “Hemoglobin D28” value (Normal Rats; 18 mg/kg, qw)?
Answer: The value was 18.99 ± 1.23.

Question: What about the “Hemoglobin D0” value (Normal Rats; 30 mg/kg, qw) of the same compound?
Answer: The value was 17.13 ± 1.17.

Question: What about the “Hemoglobin D7” value (Normal Rats; 30 mg/kg, qw, in g/dL) of the same compound?
Answer: The value was 19.33 ± 0.56.

Question: And the “Hemoglobin D14” value (Normal Rats; 30 mg/kg, qw)?
Answer: Its value is 19.44 ± 1.07.

Question: And the “Hemoglobin D21” value (Normal Rats; 30 mg/kg, qw, in g/dL)?
Answer: Its value is 20.04 ± 0.93.

Question: And the “Hemoglobin D28” value (Normal Rats; 30 mg/kg, qw, in g/dL)?
Answer: The value was 20.62 ± 0.76.

Question: What about the “hemoglobin levels compared with vehicle once weekly (qw)” value (Normal Rats; day 28, the three once weekly (qw) groups) of the same compound?
Answer: Its value is “statistically significantly increased”.

Question: What about the “exposure (Css,max, AUC0-t, AUC0-t, and AUC0-inf)” value [2, 3] of the same compound?
Answer: Its value is “increased in a dose-proportional manner”.

Question: What about the “mean clearance (CL/F)” value [2, 3] of the same compound?
Answer: Its value is “no dose-related trend”.

Question: What about the half-life ([2]; blood, after 10 consecutive days of once daily dosing, 4-30 mg, read-out: mean elimination half-life) of the same compound?
Answer: Its half-life is 12.4 to 15.8 h.

Question: What about the Tmax ([2]; blood, after 10 consecutive days of once daily dosing, 4-30 mg) of the same compound?
Answer: The Tmax was 3 to 4 h.

Question: What about the half-life ([2]; blood, multiple-dose phase, first dose on Day 1, 4-30 mg, read-out: mean half-life) of the same compound?
Answer: The half-life was 10.1 to 19.4 h.

Question: What about the Tmax ([2]; blood, multiple-dose phase, first dose on Day 1, 4-30 mg) of the same compound?
Answer: Its Tmax is 2 to 3 h.

Question: And the half-life ([2]; in vivo, single-dose phase, 1-50 mg, healthy volunteers, read-out: mean elimination half-life (t½))?
Answer: The half-life was 13.1 to 19.7 h.

Question: What about the Tmax ([2]; in vivo, single-dose phase, 1-50 mg, healthy volunteers) of the same compound?
Answer: The Tmax was 3 to 4.5 h.

Question: And the CLF [2, 4]?
Answer: The CLF was “no apparent trend with dose”.

Question: And the “exposure (Cmax, AUC0-t, and AUC0-inf)” value [2, 4]?
Answer: The value was “increased with dose”.

Question: What about the “exposure (Cmax, AUC0-t, and AUC0-inf)” value ([2]; single-dose phase) of the same compound?
Answer: The value was “increased in a dose-proportional manner”.

Question: What about the “mean clearance (CL/F)” value ([2]; single-dose phase) of the same compound?
Answer: Its value is “no dose-related trend”.
